Experimental data from PubChem BioAssay AID2823 (Broad Institute, 2010).
Activity calls are given as the source filed them. No rule for the calls is given here.

What follows are molecules tested against RanGTP-importin-beta complex (human Ran / KPNB1) (assay: disruptors of RanGTP/KPNB1 binding – biochemical, FRET, CFP/YFP, cell-free homogeneous, confirmation (AID 2823)). Settings: CFP-Ran/YFP-importin-beta FRET ratio.

SMILES	IC50
CCn1c(=O)cc(N2CCC3(CC2)OCCO3)[nH]c1=O	> 50 µM (inactive)
CCOCCCNC(=O)NC(=O)CN1CCN(S(=O)(=O)c2ccc3c(c2)OCCO3)CC1	> 50 µM (inactive)
CC(C)OC(=O)c1c(N)n(CC2CCCO2)c2nc3ccccc3nc12 (centres undefined)	18 µM
CCCC(C)c1nnc(NC(=O)C2CC(=O)N(c3ccc(OCC)cc3)C2)s1 (centres undefined)	> 50 µM (inactive)
CCOC(=O)c1c(NC(=O)c2cccc(N3C(=O)CCC3=O)c2)sc2c1CCN(CC)C2	> 50 µM (inactive)
Cc1ccc(S(=O)(=O)NCCc2cn3nc(C)c(C)nc3n2)cc1C	33.3 µM
CC(=O)c1cccc(OCC(=O)N(C)CC(=O)Nc2ccc(F)cc2)c1	> 50 µM (inactive)
COc1ccc(-c2c(C)c3ccc(O)cc3oc2=O)cc1	36.3 µM
COc1ccc(CCNC(=O)c2cc3c(=O)n4ccccc4nc3n(C3CCCCC3)c2=N)cc1OC	23.2 µM
Cc1c(CC(=O)O)c(=O)oc2c(C)c3occ(-c4ccc(F)cc4)c3cc12	> 50 µM (inactive)
O=C(c1cccc(-c2ccccc2)c1)N1CC[C@@H](N2CCC(O)CC2)[C@H](O)C1	> 50 µM (inactive)
Cc1ccccc1-n1cnc2cc(NCc3cccs3)ccc21	> 50 µM (inactive)
Cc1nc(Nc2cnc(/C=C/c3cc(C(=O)Nc4cccc(C(F)(F)F)c4)ccc3C)cn2)cc(N2CCNCC2)n1	19.7 µM
CC(=O)c1c(N2CCN(C)CC2)nc(=S)n(-c2cc(C)ccc2C)c1C	> 50 µM (inactive)
N=c1c(S(=O)(=O)c2ccc(Cl)cc2)cc2c(=O)n3ccccc3nc2n1Cc1cccnc1	> 50 µM (inactive)
Cc1cc(C(=O)COC(=O)c2nc3nccc(C)n3n2)c(C)n1CC1CCCO1 (centres undefined)	> 50 µM (inactive)
Cc1sc2nc(SCC(=O)NCc3ccco3)n(-c3ccccc3)c(=O)c2c1C	> 50 µM (inactive)
Oc1c(C=Nc2ccccc2)sc2ccccc12	27.6 µM
COC(=O)C1=CN(Cc2ccccc2)C=C(C(=O)OC)C1c1cc(F)ccc1F	15.9 µM
Cc1c(Br)c(=O)oc2c(Br)c(O)c(O)cc12	26.3 µM
COc1cccc(C(=O)/C=C/Nc2cc(C)ccc2O)c1	> 50 µM (inactive)
O=C(Oc1c(CN2CCOCC2)cc(Cl)c2cccnc12)c1ccccc1	> 50 µM (inactive)
c1ccc2sc(NC3=NCN(CCN4CCOCC4)CN3)nc2c1	> 50 µM (inactive)
O=C1/C(=C/c2cccs2)Sc2ccccc21	> 50 µM (inactive)
NC(=O)c1sc2nccc(Nc3ccccc3)c2c1N	> 50 µM (inactive)

SMILES	IC50
CCOC(=O)N1CCN(c2cc(=O)n(-c3ccccc3C)c(=O)[nH]2)CC1	> 50 µM (inactive)
CCc1nc(N)c(C#N)c(-c2ccc(F)cc2)c1C	> 50 µM (inactive)
C=CCn1c(SCCOc2ccc(OC)cc2)nnc1C(CO)NC(=O)c1ccc(OC)cc1 (centres undefined)	> 50 µM (inactive)
N=C(N)SCc1nc2ccccc2c(=O)n1-c1ccccc1Cl	> 50 µM (inactive)
COc1cc(-c2nc3cnccn3c2Nc2ccc(C(C)C)cc2)ccc1O	> 50 µM (inactive)
CCCCN(C)C(=O)c1cccc(OC2CCN(CC(C)(C)C)CC2)c1	> 50 µM (inactive)
c1ccc(Nc2nc3ccccc3n3nnnc23)cc1	27.7 µM
COc1ccc(NC(=O)CN2C(=O)CC(C)S(=O)(=O)c3ccccc32)cc1 (centres undefined)	> 50 µM (inactive)
COc1ccc(-n2cnc3cc(NCc4ccco4)ccc32)cc1	> 50 µM (inactive)
CCNc1nnc(CSc2nc3ccccc3s2)s1	> 50 µM (inactive)
O=C(c1cc2c(=O)n3ccccc3nc2s1)N1CCN(c2cccc(Cl)c2)CC1	> 50 µM (inactive)
Cc1cccc(-c2nnc(NC(=O)c3ccc(N4C(=O)CCC4=O)cc3)s2)c1	> 50 µM (inactive)
CC(C)(C)C(=O)NC(=S)Nc1ccc(S(=O)(=O)Nc2nccs2)cc1	> 50 µM (inactive)
Cc1cc(C)c(S(=O)(=O)N(C)CC(N)=O)c(C)c1	> 50 µM (inactive)
CC(=O)Nc1cccc(C(=O)N/N=C/c2ccc(F)cc2)c1	> 50 µM (inactive)
N#Cc1ccc(/C=C(\C(=O)C(=O)O)c2ccc3ccccc3n2)cc1	12 µM
Cc1nc2ccccc2n1CC(=O)N1CC(=O)Nc2ccccc21	> 50 µM (inactive)
CCN(CC)C(=O)Oc1ccc2c(c1)O/C(=C\c1ccco1)C2=O	7.92 µM
COc1ccc(NC(=O)COC(C)=O)cc1Cl	> 50 µM (inactive)
COc1ccc(S(=O)Cc2ccc(C(=O)NC3CC3)o2)cc1 (centres undefined)	> 50 µM (inactive)
Cc1ccc2cc(C#N)c(N3CCCC3)nc2c1C	> 50 µM (inactive)
CCN(CC)Cc1c(CC(C)C)oc(C)c1C(=O)O	> 50 µM (inactive)
CC1CCN(c2nc3ccccc3nc2C(C#N)C(=O)OC2CCCCC2)CC1 (centres undefined)	> 50 µM (inactive)
CCOC(=O)/C(=N\Nc1ccc(C(C)=O)cc1)c1csc(Nc2ccccc2)n1	> 50 µM (inactive)
COc1ccc(C(CNC(=O)c2cc(F)c(F)c(F)c2F)N2CCOCC2)cc1 (centres undefined)	> 50 µM (inactive)

SMILES	IC50
CCCCn1c(N)c(N(CCOC)C(=O)CN2c3ccccc3CC2C)c(=O)[nH]c1=O (centres undefined)	> 50 µM (inactive)
CCn1c(=O)cc(N2CCOCC2)[nH]c1=O	> 50 µM (inactive)
OCCNc1c2ccccc2nc2c(F)c(F)c(F)c(F)c12	20.9 µM
COc1ccc(C(=O)O)cc1S(=O)(=O)N(C)C	> 50 µM (inactive)
COCCNC(=O)/C(C#N)=C/c1c(N2CCN(c3ccc(OC)cc3)CC2)nc2c(C)cccn2c1=O	39.2 µM
CC(C)S(=O)(=O)c1nsc2nc(=O)c(/C=C3\C=Nc4ccccc43)c(N)n12	7.97 µM
CCOC(=O)c1c(N)n(CCOC(=O)c2cccs2)c2nc3ccccc3nc12	39.3 µM
Cn1c(=O)c2c(ncn2CCOc2ccc(F)cc2)n(C)c1=O	> 50 µM (inactive)
COc1cc(C(=O)NCCNc2nc3cc(C)ccc3cc2C#N)cc(OC)c1OC	34.6 µM
C/C(=N\N)c1c(-c2ccccc2)c2cc(Br)ccc2[nH]c1=O	> 50 µM (inactive)
Cc1cc(N2C(=O)C(O)=C(C(=O)c3cc4ccccc4o3)C2c2cccc(Cl)c2)no1 (centres undefined)	36 µM
Cc1ccc(C2NC(=O)c3c(sc(C)c3C)N2)c(O)c1 (centres undefined)	> 50 µM (inactive)
CC(=O)c1sc2nc(C)c3c(c2c1N)CCCC3	15.3 µM
CCN1C2=C(C(=O)CCC2)C(c2ccc(O)c(Br)c2)C2=C1CCCC2=O	7.86 µM
CCN1CCc2c(sc(NC(=O)Cc3ccccc3)c2C(=O)OC)C1	> 50 µM (inactive)
COCCn1c(N)c(C(=O)OCc2ccccc2)c2nc3ccccc3nc21	46.2 µM
CN(Cc1cnc2nc(N)nc(N)c2n1)c1ccc(C(=O)N[C@@H](CCC(=O)O)C(=O)O)cc1	> 50 µM (inactive)
CCCc1cc(=O)oc2c(CN3CCN(C)CC3)c(O)c(Cl)cc12	28.4 µM
Cc1cc(C(=O)N2CCc3c([nH]c4ccccc34)C2c2c(F)cccc2Cl)no1 (centres undefined)	> 50 µM (inactive)
CC1(C)CC(=O)CC(=Nc2ccc3[nH]c(=O)[nH]c3c2)C1	> 50 µM (inactive)
COc1ccc2cc(CCN3C(=O)c4ccccc4C3=O)c(=O)[nH]c2c1	> 50 µM (inactive)
COC(=O)c1sccc1NC(=O)c1csc(C)c1	> 50 µM (inactive)
COc1ccc(-c2c(N)nnc3c2[nH]c2ccccc23)cc1OC	> 50 µM (inactive)
CN1CCN(C(=O)c2ccccc2Nc2ccc(SC(F)F)cc2)CC1	> 50 µM (inactive)
O=C(c1ccc(Br)cc1)c1cc2ccc(O)cc2oc1=O	19.2 µM

SMILES	IC50
Cc1ccc(C2=CC(c3ccccc3)n3ncnc3N2)c(C)c1 (centres undefined)	> 50 µM (inactive)
COc1ccccc1NC(=O)c1cc2ccccc2nc1C	> 50 µM (inactive)
CCCOC(=O)CSC1=C(C#N)C(c2ccccc2OC)C(C#N)C(=O)N1 (centres undefined)	> 50 µM (inactive)
CCOC(=O)C1(CC2CCCCO2)CCN(C(=O)Nc2ccc3c(c2)OCO3)CC1 (centres undefined)	> 50 µM (inactive)
COc1ccc2cc(C(=O)N/N=C/c3sc4ccccc4c3O)ccc2c1	> 50 µM (inactive)
Cc1csc2ncnc(NC3CCN(Cc4ccccc4)CC3)c12	> 50 µM (inactive)
COc1ccccc1Nc1c2ccccc2nc2ccccc12	> 50 µM (inactive)
CC(C)c1ccc(CN2CCC(Oc3ccc(C(=O)N4CCCC4)cc3)CC2)cc1	> 50 µM (inactive)
NNC(=O)c1cc2nc(-c3cccs3)cc(C(F)(F)F)n2n1	> 50 µM (inactive)
Cc1cc(NC(=O)c2c(F)c(F)c(F)c(F)c2F)no1	> 50 µM (inactive)
CC1(C)CC(=O)C/C(=N\NC(=O)C2CC23CCC3)C1 (centres undefined)	> 50 µM (inactive)
CC(=O)N1CN2CN(C(C)=O)CC(C(=O)c3ccccc3)(C2)C1	> 50 µM (inactive)
C=CCn1c(O)c(N=NC(=S)Nc2ccccc2F)c2cc(S(=O)(=O)N3CCOCC3)ccc21	> 50 µM (inactive)
CCc1ccc(CNc2ccc3c(c2)ncn3CC)cc1	> 50 µM (inactive)
COc1c2ccccc2nc2ccccc12	8.46 µM
CCCc1c2ccccc2nc2ccccc12	8.26 µM
CCC(C)c1ccc(OCC(=O)O)cc1 (centres undefined)	> 50 µM (inactive)
Cc1c(OCC(=O)NCc2ccncc2)ccc2c3c(c(=O)oc12)CCC3	> 50 µM (inactive)
CCCCc1cc(=O)oc2c(CN3CCCC3)c(O)c(Cl)cc12	23 µM
Cc1ccc(S(=O)(=O)N(C)Cc2ccc(C(=O)N/N=C3\CC(=O)CC(C)(C)C3)cc2)cc1	> 50 µM (inactive)
CCCOC(=O)CSC1=C(C#N)C(c2ccccc2OCC)C(C#N)C(=O)N1 (centres undefined)	> 50 µM (inactive)
Nc1c(C(=O)Nc2ccccc2)c2nc3ccccc3nc2n1CCCN1CCOCC1	41.7 µM
CC(C)n1c(O)c(C2c3cc(Cl)ccc3Oc3[nH]c(=O)n(C(C)C)c(=O)c32)c(=O)[nH]c1=O (centres undefined)	> 50 µM (inactive)
COc1ccc(Oc2nc3c(C)cccn3c(=O)c2/C=C(\C#N)C(N)=O)cc1	9.6 µM
